# Measured values taken from US20250241892A1, “5-METHOXY-N,N-[…][…] THE TREATMENT OF PSYCHOMOTOR RETARDATION” (GH RESEARCH IRELAND LIMITED, priority 2022, published 2025).
# System: patients with postpartum depression (PPD)
# Assay: Clinical trial of inhaled 5-MeO-DMT in postpartum depression
# Conditions: 1 patient
# Method: The single-arm, open-label clinical trial will involve 15 adult female patients with clinically diagnosed postpartum depression (PPD).
# The second dose (12 mg) will only be administered if: • a. A peak experience (total score of ⋅75) has not been achieved following the 6 mg dose, and • b. The 6 mg dose was safe and well-tolerated according to the investigator, • c. Any psychoactive effects (PsE) of the prior dose have subsided, and • d. Pre-dose vital parameters and forced expiratory volume in one second (FEV1) are in normal range, or if outside of the normal range, are not clinically significant according to the investigator. • 3. Similarly, a third dose (18 mg) will only be administered if: • a. A peak experience (total score of ⋅75) has not been achieved following the 12 mg dose, and • b. The 12 mg dose was safe and well-tolerated according to the investigator, and • c. Any PsE of the prior dose have subsided, and • d. Pre-dose vital parameters and forced expiratory volume in one second (FEV1) are in normal range, or if outside of the normal range, are not clinically significant according to the investigator.
# The patients will be assessed for a peak psychedelic experience (based on a patient-scored visual analogue scale, the PE scale), sedation, and other endpoints after dosing. Follow-up visits are planned for Day 1, and Day 7 after the dosing day.
# The following criteria must be met by all patients considered for clinical trial participation: • 1. Is female and in the age range between 18 and 45 years (inclusive) at screening. • 2. Has a body mass index (BMI) in the range of 18.5 and 35 kg/m^2 (inclusive) at screening. • 3. Meets the trial criteria for PPD as assessed by a trial psychiatrist or registered psychologist: • a. Diagnosis of Major Depressive Disorder without psychotic features, confirmed by the Mini-International Neuropsychiatric Interview (MINI), with peri-partum onset that began no earlier than gestation and no later than the first 4 weeks postpartum. • b. Has a Montgomery-Åsberg Depression Rating Scale (MADRS) total score of equal to or greater than 28 at screening and pre-dose on Day 0. • 6. […] Patients must have a negative pregnancy test at screening and on the pre-test day (Day −1). • 5. Is willing to delay start of other antidepressant or anxiety medication until after the end of the trial at Day 7 and agrees to keep any psychotherapy unchanged during the trial.
# A potential patient who meets any of the following key exclusion criteria will be excluded from participation in this trial: • 1. Has, based on history, psychiatric assessment, and evaluation of the MINI, a current or prior diagnosis of bipolar disorder, a manic or hypomanic episode, a psychotic disorder, Major Depressive Disorder (MDD) or other mood disorder with psychotic features, obsessive compulsive disorder, post-traumatic stress disorder (PTSD), autism spectrum disorder, borderline personality disorder, schizophrenia, delusional disorder, paranoid personality disorder, schizoaffective disorder, clinically significant intellectual disability, or any other psychiatric comorbidity that renders the patient unsuitable for the trial according to the investigator's judgment. • 2. Has one or more first or second degree relatives with a current or previously diagnosed bipolar disorder, psychotic disorder or other mood disorder (including MDD) with psychotic features. • 3. Is in the judgement of a trial psychiatrist or registered psychologist, at significant risk for suicide based on history, psychiatric assessment, and evaluation of suicidal ideation and suicidal behaviour based on the Columbia-Suicide Severity Rating Scale (C-SSRS). • 4. Has taken anti-depressive medication within 14 days or 5 half-lives (whichever is longer) prior to dosing (exception: within the last 5 weeks in the case of fluoxetine). • 5.
structure (smiles),measurement,setting,value
COc1ccc2[nH]cc(CCN(C)C)c2c1 [5-MeO-DMT],BPRS Mannerisms and Posturing score,"Day 7, baseline 1",1
same,BPRS Motor retardation score,"Day 7, baseline 1",1
same,BPRS Suspiciousness score,"Day 7, baseline 1",1
same,BPRS Uncooperativeness score,"Day 7, baseline 1",1
same,BPRS Unusual Thought Content score,"Day 7, baseline 1",1
same,BPRS Excitement score,"Day 7, baseline 2",1
same,MADRS Inability to Feel score,"Day 7, baseline 3",0
same,MADRS Lassitude score,"Day 7, baseline 3",0
same,MADRS Pessimistic Thoughts score,"Day 7, baseline 4",0
same,MADRS Reported sadness score,"Day 7, baseline 4",0
same,BPRS Emotional withdrawal score,"Day 7, baseline 5",1
same,MADRS Apparent sadness score,"Day 7, baseline 5",0
same,MADRS Inner Tension score,"Day 7, baseline 5",1
same,MADRS Reduced Sleep score,"Day 7, baseline 5",0
same,BPRS Depressive Mood score,"Day 7, baseline 6",1
same,BPRS Guilt feelings score,"Day 7, baseline 6",1
same,BPRS Somatic Concern score,"Day 7, baseline 6",1
same,BPRS Tension score,"Day 7, baseline 6",1
same,BPRS Anxiety score,"Day 7, baseline 7",1
same,BIMF functional domain Adjustment Δ (Day 7),Day 7 vs Day 0,1
same,BIMF functional domain Infant Care Δ (Day 7),Day 7 vs Day 0,0
same,BIMF functional domain Management Δ (Day 7),Day 7 vs Day 0,5
same,BIMF functional domain Mother-Child Interaction Δ (Day 7),Day 7 vs Day 0,2
same,BIMF functional domain Psychological Well-being Δ (Day 7),Day 7 vs Day 0,9
same,BIMF functional domain Self Care Δ (Day 7),Day 7 vs Day 0,4
same,BIMF functional domain Social Support Δ (Day 7),Day 7 vs Day 0,1
same,BIMF item 1 (I am a good mother) Δ (Day 7),Day 7 vs Day 0,0
same,BIMF item 2 (I feel rested) Δ (Day 7),Day 7 vs Day 0,2
same,BIMF item 3 (comfortable with the way I've chosen to feed my baby) Δ (Day 7),Day 7 vs Day 0,0
same,BIMF item 4 (My baby and I understand each other) Δ (Day 7),Day 7 vs Day 0,0
same,BIMF item 5 (able to relax and enjoy time with my baby) Δ (Day 7),Day 7 vs Day 0,1
same,BIMF item 6 (people in my life that I can trust to care for my baby) Δ (Day 7),Day 7 vs Day 0,0
same,BIMF item 8 (getting enough adult interaction) Δ (Day 7),Day 7 vs Day 0,0
same,BIMF item 9 (getting enough encouragement from other people) Δ (Day 7),Day 7 vs Day 0,1
same,BIMF item 10 (I trust my own feelings (instincts)) Δ (Day 7),Day 7 vs Day 0,1
same,BIMF item 11 (a little time each week to do something for myself) Δ (Day 7),Day 7 vs Day 0,1
same,BIMF item 12 (taking good care of my baby's physical needs) Δ (Day 7),Day 7 vs Day 0,0
same,BIMF item 13 (taking good care of my physical needs) Δ (Day 7),Day 7 vs Day 0,1
same,BIMF item 14 (good decisions about my baby's health and well being) Δ (Day 7),Day 7 vs Day 0,0
same,BIMF item 15 (My baby and I are getting into a routine) Δ (Day 7),Day 7 vs Day 0,1
same,BIMF item 16 (I worry about how other people judge me) Δ (Day 7),Day 7 vs Day 0,2
same,BIMF item 17 (able to take care of my baby and my other responsibilities) Δ (Day 7),Day 7 vs Day 0,0
same,BIMF item 18 (Anxiety or worry often interferes with my mothering ability) Δ (Day 7),Day 7 vs Day 0,3
same,BIMF item 19 (getting better at taking care of my baby) Δ (Day 7),Day 7 vs Day 0,1
same,BIMF item 20 (satisfied with the job I am doing as a new mother) Δ (Day 7),Day 7 vs Day 0,−1
same,BPRS Anxiety improvement,Day 7 vs baseline,6
same,BPRS Blunted affect improvement,Day 7 vs baseline,0
same,BPRS Conceptual disorganization improvement,Day 7 vs baseline,0
same,BPRS Depressive Mood improvement,Day 7 vs baseline,5
same,BPRS Disorientation improvement,Day 7 vs baseline,0
same,BPRS Emotional withdrawal improvement,Day 7 vs baseline,4
same,BPRS Excitement improvement,Day 7 vs baseline,1
same,BPRS Grandiosity improvement,Day 7 vs baseline,0
same,BPRS Guilt feelings improvement,Day 7 vs baseline,5
same,BPRS Hallucinatory behaviour improvement,Day 7 vs baseline,0
same,BPRS Hostility improvement,Day 7 vs baseline,0
same,BPRS Mannerisms and Posturing improvement,Day 7 vs baseline,0
same,BPRS Motor retardation improvement,Day 7 vs baseline,0
same,BPRS Somatic Concern improvement,Day 7 vs baseline,5
same,BPRS Suspiciousness improvement,Day 7 vs baseline,0
same,BPRS Tension improvement,Day 7 vs baseline,5
same,BPRS Uncooperativeness improvement,Day 7 vs baseline,0
same,BPRS Unusual Thought Content improvement,Day 7 vs baseline,0
same,MADRS Apparent sadness improvement,Day 7 vs baseline,5
same,MADRS Concentration Difficulties improvement,Day 7 vs baseline,0
same,MADRS Inability to Feel improvement,Day 7 vs baseline,3
same,MADRS Inner Tension improvement,Day 7 vs baseline,4
same,MADRS Lassitude improvement,Day 7 vs baseline,3
same,MADRS Pessimistic Thoughts improvement,Day 7 vs baseline,4
same,MADRS Reduced Sleep improvement,Day 7 vs baseline,5
same,MADRS Reduced appetite improvement,Day 7 vs baseline,0
same,MADRS Reported sadness improvement,Day 7 vs baseline,4
same,MADRS Suicidal Thoughts improvement,Day 7 vs baseline,0
same,BPRS Anxiety improvement,Discharge vs baseline,6
same,BPRS Blunted affect improvement,Discharge vs baseline,0
same,BPRS Conceptual disorganization improvement,Discharge vs baseline,0
same,BPRS Depressive Mood improvement,Discharge vs baseline,5
same,BPRS Disorientation improvement,Discharge vs baseline,0
same,BPRS Emotional withdrawal improvement,Discharge vs baseline,4
same,BPRS Excitement improvement,Discharge vs baseline,1
same,BPRS Grandiosity improvement,Discharge vs baseline,0
same,BPRS Guilt feelings improvement,Discharge vs baseline,5
same,BPRS Hallucinatory behaviour improvement,Discharge vs baseline,0
same,BPRS Hostility improvement,Discharge vs baseline,0
same,BPRS Mannerisms and Posturing improvement,Discharge vs baseline,0
same,BPRS Motor retardation improvement,Discharge vs baseline,0
same,BPRS Somatic Concern improvement,Discharge vs baseline,5
same,BPRS Suspiciousness improvement,Discharge vs baseline,0
same,BPRS Uncooperativeness improvement,Discharge vs baseline,0
same,BPRS Unusual Thought Content improvement,Discharge vs baseline,0
same,BPRS Blunted affect score,"Discharge, baseline 1",1
same,BPRS Conceptual disorganization score,"Discharge, baseline 1",1
same,BPRS Disorientation score,"Discharge, baseline 1",1
same,BPRS Grandiosity score,"Discharge, baseline 1",1
same,BPRS Hallucinatory behaviour score,"Discharge, baseline 1",1
same,BPRS Hostility score,"Discharge, baseline 1",1
same,BPRS Mannerisms and Posturing score,"Discharge, baseline 1",1
same,BPRS Motor retardation score,"Discharge, baseline 1",1
same,BPRS Suspiciousness score,"Discharge, baseline 1",1
same,BPRS Uncooperativeness score,"Discharge, baseline 1",1
same,BPRS Unusual Thought Content score,"Discharge, baseline 1",1
same,BPRS Excitement score,"Discharge, baseline 2",1
same,BPRS Emotional withdrawal score,"Discharge, baseline 5",1
same,BPRS Depressive Mood score,"Discharge, baseline 6",1
same,BPRS Guilt feelings score,"Discharge, baseline 6",1
same,BPRS Somatic Concern score,"Discharge, baseline 6",1
same,BPRS Tension score,"Discharge, baseline 6",1
same,BPRS Anxiety score,"Discharge, baseline 7",1
same,Changes in vital parameters,shortly after administration,"temporary, clinically non-relevant increase in heart rate and blood pressure"
